US20150366836A1, “METHOD AND PHARMACEUTICAL COMPOSITION FOR TREATING COLORECTAL CANCER” (National Dong Hua University, priority 2014, published 2015)

Assays:
[1] = test system: mouse bearing inflammatory bowel disease (IBD), AOM/DSS induced; assay: Mouse model bearing IBD (AOM/DSS induced), body weight and H&E staining of intestine; assay type: in vivo, C57/BL6 mice
Description: The animal experiments were approved by the National Dong-Hwa University Animal Ethics Committee and the experimental protocols were used according to the “Guide for the Care and Use of Laboratory Animals” of National Dong-Hwa University. On day 0, C57/BL6 mice (6-8 weeks old) were weighted and injected (intraperitoneal; i.p.) with 10 mg/kg body weight of azoxymethane (AOM) and then fed with 2% Dextran sodium sulfate solution (DSS solution) via water every day for 7 days. On day 8, the 2% DSS solution was changed to normal water for another 7 days. The cycle of DSS solution and water was repeated and the induction procedure was completed on day 35.
After the establishment of IBD in the experimental mice (on day 35), the mice were injected (i.p.) with 5-FU (15 mg/kg body weight) or HCD (0.64, 1.6, or 6.4 mg/kg body weight) once every three days for additional 30 days. Then, the mice were sacrificed. The colon, spleen, liver, and kidney thereof were immediately removed, observed, and further examined by H&E staining.

Caco2 cells [2] = assay: MTT assay cell viability, Caco2 cells; assay type: cell-based
Description: (§1) Two cell lines were used in this study, Caco2 cells and HT-29 cells. Both of them are colorectal cancer cells. Caco2 cells and HT-29 cells were maintained in DMEM (or RPMI) supplemented with 20% or 10% fetal bovine serum (FBS; GIBCO), pH 7.4 at 37° C. with continuous circulation of 5% CO2 incubator. The medium was changed every 2 days and the cells were trypsinized using trypsin/EDTA when reaching 80%-90% confluence.
(§2) In this example, the effects of HCD, PG, and 5-FU on the viability of Caco2 cells and HT-29 cells were examined. The MTT assay was employed for this purpose. The MTT (3-(4-,5-dimethylthiazol-2-yl)-2,5-diphenyltetrazolium bromide) assay is a common colorimetric method in the field for cell viability analysis. MTT (yellow tetrazolium salt) is reduced to a purple formazan by living cells and detection to the purple formazan can be calculated as the cell viability.
(§3) Briefly, cells (Caco2 or HT-29) were seeded in 96-well plate (7×10^3 cell per well) and incubated overnight (37° C., 5% CO2).
(§4) On the other hand, in the pretreatment analysis, cells (Caco2 or HT-29) were seeded in 96-well plate (7×10^3 cell per well) and incubated overnight (37° C., 5% CO2). In according to the treatments listed in the Table 1, Cells were pre-treated by HCD or PG for 6, 12, 24, 36, or 48 hr and then were treated by 5-FU for additional 24 hr.

Caco2 cells [3] = assay: Cell cycle analysis by flow cytometer (PI staining), Caco2 cells; assay type: cell-based
Description: (§5) The results of Example 2 in cell viability hinted the effects of HCD, PG, and 5-FU on arresting cell cycle. In this example, the phase of cell cycle of Caco2 and HT-29 cells after the treatment listed in Table 1 was determined by flow cytometer. Briefly, 7×10^4 cells per well were inoculated in 12-wells plate and incubated overnight at 37° C., 5% CO2. Then, cells were treated according to the treatment listed in Table 1 by indicated time period. After treatment, cells were harvested by trypsin and fixed with 70% ethanol at −20° C. for at least 3 hr. The cells were washed in cold PBS twice and then incubated with 1 mL (v/v) staining solution (20 μg/mL propidium iodide (PI), 0.1% Triton X-100, 0.2 mg/mL Rnase) at 37° C. for 30 minutes. Lastly, cells were analyzed by flow cytometer (Cytomics™ FC500, Backman, Fullerton, Calif., USA). Data from 10,000 cells were collected for each experimental group.

HT-29 cells [4] = assay: MTT assay cell viability, HT-29 cells; assay type: cell-based
Description: as §1, §2, §3, §4

HT-29 cells [5] = assay: Cell cycle analysis by flow cytometer (PI staining), HT-29 cells; assay type: cell-based
Description: as §5

CC1=CCCC2C1(C)CCC(C)C2(C)CCC1=CC(=O)OC1O (stereo not drawn) [HCD, 16-hydroxy-cleroda-3,13-dine-15,16-olide]
intestine villus arrangement (H&E staining) ([1]; 0.64 mg/kg body weight i.p.): irregular arrangement of villus
lymph node (H&E staining) ([1]; 0.64 mg/kg body weight i.p.): not infiltrated into muscle mucosa layer
body weight ([1]; 0.64 mg/kg body weight i.p. once every three days, 30 days): initially reduced
intestine villus arrangement (H&E staining) ([1]; 1.6 mg/kg body weight i.p.): arranged in neat rows nearly as seen in the control mice
lymph node (H&E staining) ([1]; 1.6 mg/kg body weight i.p.): not infiltrated into muscle mucosa layer
intestine villus arrangement (H&E staining) ([1]; 6.4 mg/kg body weight i.p.): arranged in neat rows nearly as seen in the control mice
lymph node (H&E staining) ([1]; 6.4 mg/kg body weight i.p.): not infiltrated into muscle mucosa layer
effect of pre-treating on efficacy of 5-FU in the subsequent treatment (MTT) (Caco2 cells [2]; Caco2, pre-treatment 6-48 hr, then 5-FU 2 μM 24 hr): significantly enhanced the efficacy of 5-FU
IC50 (Caco2 cells [2]; Caco2 cells, 48 hr treatment): 5 µM
cell cycle arrest at sub-G1 phase vs control (in words) (Caco2 cells [3]; Caco2): increased cell cycle arrest at sub-G1 phase
G0/G1 (%) (Caco2 cells [3]; Caco2, 0.5 μM, 36 hr): 43.8 ± 3.81%
G2/M (%) (Caco2 cells [3]; Caco2, 0.5 μM, 36 hr): 20.37 ± 4.24%
S (%) (Caco2 cells [3]; Caco2, 0.5 μM, 36 hr): 17.3 ± 0.44%
Sub G1 (%) (Caco2 cells [3]; Caco2, 0.5 μM, 36 hr): 14.4 ± 1.73%
G0/G1 (%) (Caco2 cells [3]; Caco2, 0.5 μM, 48 hr): 44.13 ± 3.26%
G2/M (%) (Caco2 cells [3]; Caco2, 0.5 μM, 48 hr): 21.2 ± 2.46%
S (%) (Caco2 cells [3]; Caco2, 0.5 μM, 48 hr): 15.93 ± 0.9%
Sub G1 (%) (Caco2 cells [3]; Caco2, 0.5 μM, 48 hr): 14.47 ± 5.05%
G0/G1 (%) (Caco2 cells [3]; Caco2, 2 μM, 36 hr): 29.73 ± 4.22 %
G2/M (%) (Caco2 cells [3]; Caco2, 2 μM, 36 hr): 23.73 ± 3.91%
S (%) (Caco2 cells [3]; Caco2, 2 μM, 36 hr): 13.03 ± 0.5%
Sub G1 (%) (Caco2 cells [3]; Caco2, 2 μM, 36 hr): 28.8 ± 4.2 %
G0/G1 (%) (Caco2 cells [3]; Caco2, 2 μM, 48 hr): 25.73 ± 4.63%
G2/M (%) (Caco2 cells [3]; Caco2, 2 μM, 48 hr): 22.03 ± 2.11%
S (%) (Caco2 cells [3]; Caco2, 2 μM, 48 hr): 11.63 ± 1.08%
Sub G1 (%) (Caco2 cells [3]; Caco2, 2 μM, 48 hr): 36.17 ± 7.48 %
G0/G1 (%) (Caco2 cells [3]; Caco2, 5 μM, 36 hr): 19.4 ± 1.82 %
G2/M (%) (Caco2 cells [3]; Caco2, 5 μM, 36 hr): 14.77 ± 0.8%
S (%) (Caco2 cells [3]; Caco2, 5 μM, 36 hr): 9.9 ± 0.98 %
Sub G1 (%) (Caco2 cells [3]; Caco2, 5 μM, 36 hr): 51.77 ± 1.65 %
G0/G1 (%) (Caco2 cells [3]; Caco2, 5 μM, 48 hr): 15.67 ± 6.25 %
G2/M (%) (Caco2 cells [3]; Caco2, 5 μM, 48 hr): 12.9 ± 0.87%
S (%) (Caco2 cells [3]; Caco2, 5 μM, 48 hr): 9.87 ± 0.55%
Sub G1 (%) (Caco2 cells [3]; Caco2, 5 μM, 48 hr): 54.2 ± 0.62 %
G2/M phase after pre-treatment then 5-FU (in words) (Caco2 cells [3]; Caco2, 12 and 24 hr pretreatment of 1 or 2 μM, then 5-FU): decreased
effect of pre-treating on efficacy of 5-FU in the subsequent treatment (MTT) (HT-29 cells [4]; HT-29, pre-treatment 6-48 hr, then 5-FU 2 μM 24 hr): significantly enhanced the efficacy of 5-FU
IC50 (HT-29 cells [4]; HT-29 cells, 36 hr treatment): 5 µM
cell cycle arrest at sub-G1 phase vs control (in words) (HT-29 cells [5]; HT-29): increased cell cycle arrest at sub-G1 phase
G0/G1 (%) (HT-29 cells [5]; HT-29, 0.5 μM, 24 hr): 82.9 ± 0.849 %
G2/M (%) (HT-29 cells [5]; HT-29, 0.5 μM, 24 hr): 8.2 ± 0 %
S (%) (HT-29 cells [5]; HT-29, 0.5 μM, 24 hr): 3.3 ± 0.424 %
Sub G1 (%) (HT-29 cells [5]; HT-29, 0.5 μM, 24 hr): 4.35 ± 0.495%
G0/G1 (%) (HT-29 cells [5]; HT-29, 0.5 μM, 36 hr): 59.25 ± 0.54%
G2/M (%) (HT-29 cells [5]; HT-29, 0.5 μM, 36 hr): 14.25 ± 1.01 %
S (%) (HT-29 cells [5]; HT-29, 0.5 μM, 36 hr): 15.85 ± 1.68%
Sub G1 (%) (HT-29 cells [5]; HT-29, 0.5 μM, 36 hr): 7.7 ± 0.81%
G0/G1 (%) (HT-29 cells [5]; HT-29, 2 μM, 24 hr): 33.9 ± 1.414 %
G2/M (%) (HT-29 cells [5]; HT-29, 2 μM, 24 hr): 22 ± 1.414%
S (%) (HT-29 cells [5]; HT-29, 2 μM, 24 hr): 17.95 ± 0.212%
Sub G1 (%) (HT-29 cells [5]; HT-29, 2 μM, 24 hr): 20.7 ± 0.707 %
G0/G1 (%) (HT-29 cells [5]; HT-29, 2 μM, 36 hr): 35.95 ± 1.34 %
G2/M (%) (HT-29 cells [5]; HT-29, 2 μM, 36 hr): 9.05 ± 1.485 %
S (%) (HT-29 cells [5]; HT-29, 2 μM, 36 hr): 7.8 ± 0.14 %
Sub G1 (%) (HT-29 cells [5]; HT-29, 2 μM, 36 hr): 43.95 ± 3.89 %
G0/G1 (%) (HT-29 cells [5]; HT-29, 5 μM, 24 hr): 27.5 ± 4.808%
G2/M (%) (HT-29 cells [5]; HT-29, 5 μM, 24 hr): 23.5 ± 2.97%
S (%) (HT-29 cells [5]; HT-29, 5 μM, 24 hr): 15.1 ± 2.546%
Sub G1 (%) (HT-29 cells [5]; HT-29, 5 μM, 24 hr): 22.95 ± 7.99 %
G0/G1 (%) (HT-29 cells [5]; HT-29, 5 μM, 36 hr): 16.4 ± 4.95 %
G2/M (%) (HT-29 cells [5]; HT-29, 5 μM, 36 hr): 11.15 ± 1.20 %
S (%) (HT-29 cells [5]; HT-29, 5 μM, 36 hr): 7.5 ± 1.13 %
Sub G1 (%) (HT-29 cells [5]; HT-29, 5 μM, 36 hr): 62 ± 6.93 %
cell cycle phases after pre-treatment then 5-FU (in words) (HT-29 cells [5]; HT-29, pre-treatment, then 5-FU): increase of sub G1 phase and decrease of G2/M phase
